The target in data set [1] is UDP-glucuronosyltransferase 2B28 (Homo sapiens, UniProt Q9BY64). Put plainly: Drug glucuronidation reaction catalyzed by human recombinant UGT2B28.
Data set [2] concerns the target UDP-glucuronosyltransferase 1A6 (Homo sapiens, UniProt P19224). The experiment in a line: Drug glucuronidation reaction catalyzed by human recombinant UGT1A6.
The target in data set [3] is T1, UDP-glucuronosyltransferase 1A4 (Homo sapiens, UniProt P22310).
T1 sequence (P22310 whole entry): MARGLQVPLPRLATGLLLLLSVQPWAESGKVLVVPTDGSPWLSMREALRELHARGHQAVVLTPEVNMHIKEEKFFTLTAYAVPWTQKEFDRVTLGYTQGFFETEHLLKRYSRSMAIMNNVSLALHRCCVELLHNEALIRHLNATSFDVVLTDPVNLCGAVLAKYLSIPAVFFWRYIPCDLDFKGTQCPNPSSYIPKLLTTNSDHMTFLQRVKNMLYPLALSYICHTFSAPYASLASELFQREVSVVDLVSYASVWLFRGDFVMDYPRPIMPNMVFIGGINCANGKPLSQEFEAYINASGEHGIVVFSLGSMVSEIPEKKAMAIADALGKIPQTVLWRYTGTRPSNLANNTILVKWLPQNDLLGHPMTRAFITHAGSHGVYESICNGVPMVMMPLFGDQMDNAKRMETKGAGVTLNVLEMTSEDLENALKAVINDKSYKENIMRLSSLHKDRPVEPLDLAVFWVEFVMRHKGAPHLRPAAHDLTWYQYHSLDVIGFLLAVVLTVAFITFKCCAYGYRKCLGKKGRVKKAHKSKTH
The experiment in a line: (§1) Drug glucuronidation reaction catalyzed by human recombinant UGT1A4.

Data set [4] has as its target UGT1A4 (Homo sapiens, UniProt P22310). The data set is described as §1. Particulars: recombinant UGT1A4.

Chain of UDP-glucuronosyltransferase 2B28 (Q9BY64 whole entry): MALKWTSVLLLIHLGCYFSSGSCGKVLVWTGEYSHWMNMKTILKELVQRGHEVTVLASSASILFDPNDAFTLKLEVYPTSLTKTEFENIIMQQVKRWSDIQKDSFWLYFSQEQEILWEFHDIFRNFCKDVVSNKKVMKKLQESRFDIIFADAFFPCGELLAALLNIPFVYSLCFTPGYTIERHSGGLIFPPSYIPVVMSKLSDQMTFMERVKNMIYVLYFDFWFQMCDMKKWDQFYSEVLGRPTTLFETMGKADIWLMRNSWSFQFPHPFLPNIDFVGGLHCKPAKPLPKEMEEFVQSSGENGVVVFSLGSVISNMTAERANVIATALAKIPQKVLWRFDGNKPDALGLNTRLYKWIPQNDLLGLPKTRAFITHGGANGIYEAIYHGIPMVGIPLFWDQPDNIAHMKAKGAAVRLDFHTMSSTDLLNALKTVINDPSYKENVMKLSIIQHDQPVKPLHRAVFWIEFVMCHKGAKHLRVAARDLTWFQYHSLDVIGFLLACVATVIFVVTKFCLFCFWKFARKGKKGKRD
Chain of UDP-glucuronosyltransferase 1A6 (P19224 whole entry): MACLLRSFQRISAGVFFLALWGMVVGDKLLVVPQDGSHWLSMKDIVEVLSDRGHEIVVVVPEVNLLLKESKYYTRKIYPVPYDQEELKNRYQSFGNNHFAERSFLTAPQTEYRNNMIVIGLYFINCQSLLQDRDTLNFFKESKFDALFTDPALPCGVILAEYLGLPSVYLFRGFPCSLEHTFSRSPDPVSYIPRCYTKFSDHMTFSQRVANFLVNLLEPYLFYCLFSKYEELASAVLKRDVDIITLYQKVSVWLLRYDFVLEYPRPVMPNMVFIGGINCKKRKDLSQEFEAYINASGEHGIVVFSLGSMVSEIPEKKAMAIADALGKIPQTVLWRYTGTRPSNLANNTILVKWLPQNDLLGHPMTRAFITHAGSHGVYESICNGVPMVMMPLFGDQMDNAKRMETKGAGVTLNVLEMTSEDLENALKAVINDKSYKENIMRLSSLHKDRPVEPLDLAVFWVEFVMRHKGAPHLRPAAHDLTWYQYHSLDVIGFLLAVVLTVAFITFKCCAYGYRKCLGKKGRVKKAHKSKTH

Regarding `C[C@]12CC[C@@H]3c4ccc(O)cc4CC[C@H]3[C@@H]1CC[C@@H]2O` [ESTRADIOL], in data set [1], the Vmax is listed as below 1 pmol/min/mg protein.

With `CC(=O)Nc1ccc(O)cc1` [ACETAMINOPHEN], the Vmax in data set [2] worked out at 100 pmol/min/mg protein.

As usually defined, the Km is the concentration of substrate that gives half-maximal velocity. As for `Cc1cc2c(s1)Nc1ccccc1N=C2N1CCN(C)CC1` [OLANZAPINE], the Vmax in data set [3] was 2370 pmol/min/mg protein. The Michaelis constant (Km) in data set [4] turned out to be 227 µM.

The values are drawn from ChEMBL document CHEMBL1908105, “UDP-glucuronosyltransferases and clinical drug-drug interactions” (Pharmacol Ther, 2005).
